# Results reported in BindingDB's records for doi:10.1016/j.chembiol.2004.10.013 (University of Dundee, 2005).
# *1 amine or outer side, *2 acyl side, *3 side chain or, on linkers, in order; H or OH if unused. Where a SMILES comes first, the peptide text is derived from it. Side-chain parts run from the residue outwards. [ ]: non-standard residue; d: D form. βAsp = O=C(O)[C@H](CC(=O)[*:2])N[*:1]; NMeF = CN[C@@H](Cc1ccccc1)C(=O)O; CO = O=C([*:1])[*:2]
# Key:
# Assay in all cases: Enzyme Inhibition Assay
# Endochitinase B1 [D175A] = Endochitinase B1 [D175A] (Aspergillus fumigatus, UniProt Q873X9, D175A)
# Endochitinase B1 [E322A] = Endochitinase B1 [E322A] (Aspergillus fumigatus, UniProt Q873X9, E322A)
# Endochitinase B1 [T138A] = Endochitinase B1 [T138A] (Aspergillus fumigatus, UniProt Q873X9, T138A)
# Endochitinase B1 [M243A] = Endochitinase B1 [M243A] (Aspergillus fumigatus, UniProt Q873X9, M243A)
# Endochitinase B1 [R301K] = Endochitinase B1 [R301K] (Aspergillus fumigatus, UniProt Q873X9, R301K)
# Endochitinase B1 = Endochitinase B1 (Aspergillus fumigatus, UniProt Q873X9); details: for IC50: pH 5.5, 37 °C
# Endochitinase B1 [A217G] = Endochitinase B1 [A217G] (Aspergillus fumigatus, UniProt Q873X9, A217G)
# Chitinase B = target: T1, Chitinase B (Serratia marcescens, UniProt P11797); details: pH 5.5; 37 °C
# T1 sequence (P11797 whole entry): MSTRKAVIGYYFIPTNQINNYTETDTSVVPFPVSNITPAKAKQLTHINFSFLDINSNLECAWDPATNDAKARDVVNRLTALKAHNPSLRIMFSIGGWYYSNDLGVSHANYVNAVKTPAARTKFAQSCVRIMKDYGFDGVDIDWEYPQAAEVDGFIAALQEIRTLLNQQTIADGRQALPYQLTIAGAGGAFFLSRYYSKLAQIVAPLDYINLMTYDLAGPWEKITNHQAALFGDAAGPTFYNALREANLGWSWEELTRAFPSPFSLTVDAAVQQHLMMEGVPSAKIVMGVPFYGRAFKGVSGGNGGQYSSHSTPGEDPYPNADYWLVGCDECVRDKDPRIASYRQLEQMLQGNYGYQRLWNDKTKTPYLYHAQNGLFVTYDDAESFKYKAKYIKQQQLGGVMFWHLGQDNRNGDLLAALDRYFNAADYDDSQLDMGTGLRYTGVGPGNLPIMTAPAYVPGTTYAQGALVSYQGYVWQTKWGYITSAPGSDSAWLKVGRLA
# Endochitinase B1 [Y245F] = Endochitinase B1 [Y245F] (Aspergillus fumigatus, UniProt Q873X9, Y245F)
structure (smiles),measurement,setting,value
"CNC(=O)NC(=N)NCCC[C@@H]1NC(=O)[C@@H](C)NC(=O)C[C@@H](C(=O)O)NC(=O)C[C@@H](C(=O)O)NC(=O)[C@H](Cc2ccccc2)N(C)C1=O [(2R,5S,8S,11S,15S)-8-benzyl-2,7-dimethyl-5-[3-({[(methylcarbamoyl)amino]methanimidoyl}amino)propyl]-3,6,9,13,17-pentaoxo-1,4,7,10,14-pentaazacycloheptadecane-11,15-dicarboxylic acid] (cyclo([NMeF][βAsp][βAsp][dA]R([CO-NHMe])))",Kd,Endochitinase B1 [D175A],3.81 µM
same,Kd,Endochitinase B1 [E322A],1.37 µM
same,Kd,Endochitinase B1 [T138A],1.21 µM
same,Kd,Endochitinase B1 [M243A],1.73 µM
same,Kd,Endochitinase B1 [R301K],2.16 µM
same,Kd,Endochitinase B1,0.46 µM
same,IC50,Endochitinase B1,1.1 µM
same,Kd,Endochitinase B1 [A217G],4.24 µM
same,Ki,Chitinase B,33 µM
"CC(=O)NC(=N)NCCC[C@@H]1NC(=O)[C@H](CCCC(=O)O)NC(=O)[C@H](Cc2c[nH]cn2)N2C(=O)[C@H](C[C@H]2O)NC(=O)[C@H]2CCCN2C1=O [4-[(1S,4R,10S,13S,16S,18R)-10-{3-[(acetamidomethanimidoyl)amino]propyl}-18-hydroxy-16-(1H-imidazol-4-ylmethyl)-3,9,12,15,20-pentaoxo-2,8,11,14,17-pentaazatricyclo[15.2.1.0^{4,8}]icosan-13-yl]butanoic acid]",Kd,Endochitinase B1 [D175A],3.6 µM
same,Kd,Endochitinase B1 [Y245F],5.57 µM
same,Kd,Endochitinase B1 [E322A],2.93 µM
same,Kd,Endochitinase B1 [T138A],3.04 µM
same,Kd,Endochitinase B1 [M243A],9.39 µM
same,Kd,Endochitinase B1 [R301K],1.02 µM
same,Kd,Endochitinase B1,0.81 µM
same,IC50,Endochitinase B1,0.5 µM
same,Kd,Endochitinase B1 [A217G],2.84 µM
same,Ki,Chitinase B,0.02 µM
